Test results as given in US20090099169A1, “Benzofuran Compounds As EP1 Receptor Antagonists” (GLAXO GROUP LIMITED, priority 2006, published 2009).
Counter-ions that a name gives are not always drawn.

Legend:
human EP1 receptor [1] = target: T1, human EP1 receptor (Homo sapiens, UniProt P34995); assay: human EP1 calcium mobilisation assay; format: cell-based; set-up: expressed in transfected cells; details: CHO-K1 cells, antagonism of PGE2; averages of a number of experiments; read-out: functional pKi value (human EP1 calcium mobilisation assay) (converted)
T1 sequence (P34995 1-402): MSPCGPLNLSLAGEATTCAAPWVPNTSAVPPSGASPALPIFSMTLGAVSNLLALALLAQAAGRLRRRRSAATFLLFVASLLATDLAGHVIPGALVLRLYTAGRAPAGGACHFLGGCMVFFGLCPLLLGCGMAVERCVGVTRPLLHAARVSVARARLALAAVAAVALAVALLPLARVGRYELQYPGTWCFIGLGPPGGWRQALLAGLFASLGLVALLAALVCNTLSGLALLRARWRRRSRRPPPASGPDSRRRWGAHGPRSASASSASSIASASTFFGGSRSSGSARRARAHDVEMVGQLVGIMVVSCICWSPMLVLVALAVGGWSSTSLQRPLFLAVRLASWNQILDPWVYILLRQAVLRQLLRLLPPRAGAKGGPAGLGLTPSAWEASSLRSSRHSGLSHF
Procedure: Briefly, the antagonist properties of compounds are assessed by their ability to inhibit the mobilisation of intracellular calcium ([Ca^2+]i) in response to activation of EP1 or EP3 receptors by the natural agonist hormone prostaglandin E2 (PGE2). Increasing concentrations of antagonist reduce the amount of calcium that a given concentration of PGE2 can mobilise. The net effect is to displace the PGE2 concentration-effect curve to higher concentrations of PGE2. The amount of calcium produced is assessed using a calcium-sensitive fluorescent dye such as Fluo-4, AM and a suitable instrument such as a Fluorimetric Imaging Plate Reader (FLIPR). Increasing amounts of [Ca^2+]i produced by receptor activation increase the amount of fluorescence produced by the dye and give rise to an increasing signal. The signal may be detected using the FLIPR instrument and the data generated may be analysed with suitable curve-fitting software.
The human EP1 or EP3 calcium mobilisation assay (hereafter referred to as ‘the calcium assay’) utilises Chinese hamster ovary-K1 (CHO-K1) cells into which a stable (PCIN; BioTechniques 20 (1996): 102-110) vector containing either EP1 or EP3 cDNA has previously been transfected. Cells are cultured in suitable flasks containing culture medium such as DMEM:F-12 supplemented with 10% v/v foetal calf serum, 2 mM L-glutamine, 0.25 mg/ml geneticin, 100 μM flurbiprofen and 10 μg/ml puromycin.
For assay, cells are harvested using a proprietary reagent that dislodges cells such as Versene. Cells are re-suspended in a suitable quantity of fresh culture media for introduction into a 384-well plate. Following incubation for 24 hours at 37° C. the culture media is replaced with a medium containing Fluo-4 and the detergent pluronic acid, and a further incubation takes place. Concentrations of compounds are then added to the plate in order to construct concentration-effect curves. This may be performed on the FLIPR in order to assess the agonist properties of the compounds. Concentrations of PGE2 are then added to the plate in order to assess the antagonist properties of the compounds.
The data so generated may be analysed by means of a computerised curve-fitting routine. The concentration of compound that elicits a half-maximal inhibition of the calcium mobilisation induced by PGE2 (pIC50) may then be estimated.

human EP1 receptor [2] = target: T1, human EP1 receptor; assay: Binding assay for the human prostanoid EP1 receptor (radioligand competition); set-up: expressed in transfected cells; host or cells: CHO-K1 (membranes); details: CHO-K1 membranes; [3H]-PGE2 for Examples 1-17, 19, 33, 34, 60 and 61, 3-{2-[5-Bromo-2-(2,4-difluorobenzyloxy)-phenyl]-5-methyl-pyrrol-1-yl}-6-[3H3-methoxy]methoxy-benzoic acid for the remaining; averages of a number of experiments; read-out: pIC50 value (binding assay for the human prostanoid EP1 receptor) (converted)
Procedure: Compound potencies are determined using a radioligand binding assay. In this assay compound potencies are determined from their ability to compete with tritiated prostaglandin E2 ([^3H]-PGE2) for binding to the human EP1 receptor.
This assay utilises Chinese hamster ovary-K1 (CHO-K1) cells into which a stable vector containing the EP1 cDNA has previously been transfected. Cells are cultured in suitable flasks containing culture medium such as DMEM:F-12 supplemented with 10% v/v foetal calf serum, 2 mM L-glutamine, 0.25 mg/ml geneticin, 10 μg/ml puromycin and 10 μM indomethacin.
Cells are detached from the culture flasks by incubation in calcium and magnesium free phosphate buffered saline containing 1 mM disodium ethylenediaminetetraacetic acid (Na2EDTA) and […] indomethacin for 5 min. The cells are isolated by centrifugation at 250×g for 5mins and suspended in an ice cold buffer such as 50 mM Tris, 1 mM Na2EDTA, 140 mM NaCl, 10 μM indomethacin (pH 7.4). The cells are homogenised using a Polytron tissue disrupter (2×10 s burst at full setting), centrifuged at 48,000×g for 20mins and the pellet containing the membrane fraction is washed (optional) three times by suspension and centrifugation at 48,000×g for 20mins. The final membrane pellet is suspended in an assay buffer such as 10 mM 2-[N-morpholino]ethanesulphonic acid, 1 mM Na2EDTA, 10 mM MgCl2 (pH 6). Aliquots are frozen at −80° C. until required.
(§1) For the binding assay the cell membranes, competing compounds and [^3H]-PGE2 (3 nM final assay concentration) are incubated in a final volume of 100 μl for 30 min at 30° C. All reagents are prepared in assay buffer. Reactions are terminated by rapid vacuum filtration over GF/B filters using a Brandell cell harvester. The filters are washed with ice cold assay buffer, dried and the radioactivity retained on the filters is measured by liquid scintillation counting in Packard TopCount scintillation counter.
The data are analysed using non linear curve fitting techniques to determine the concentration of compound producing 50% inhibition of specific binding (IC50).
Alternatively a similar assay may be carried out using 3-{2-[5-Bromo-2-(2,4-difluoro-benzyloxy)-phenyl]-5-methyl-pyrrol-1-yl}-6-[^3H3-methoxy]methoxy-benzoic acid instead of [^3H]-PGE2.
For the binding assay using 3-{2-[5-Bromo-2-(2,4-difluoro-benzyloxy)-phenyl]-5-methyl-pyrrol-1-yl}-6-[^3H3-methoxy]methoxy-benzoic acid instead of [^3H]-PGE2 the assay is carried out using a similar procedure to that described above using [^3H]-PGE2 with the following changes:
as §1, with “The” for “For the binding assay the”, “3-{2-[5-Bromo-2-(2,4-difluoro-benzyloxy)-phenyl]-5-methyl-pyrrol-1-yl}-6-[^3H3-methoxy]methoxy-benzoic acid (0.2” for “[^3H]-PGE2 (3”, “400” for “100”, “45” for “30”, “37°” for “30°”, “water at ambient temperature,” for “ice cold assay buffer,”
The preparation of 3-{2-[5-Bromo-2-(2,4-difluoro-benzyloxy)-phenyl]-5-methyl-pyrrol-1-yl}-6-methoxy-benzoic acid is described in WO 03/101959 and in Hall et al, Biorg. Med. Chem. Lett., 2007, 17, 916-920. The tritiated version may be prepared via conventional routes, e.g. from 3-{2-[5-bromo-2-(2,4-difluoro-benzyloxy)-phenyl]-5-methyl-pyrrol-1-yl}-6-hydroxy-benzoic acid or 3-{2-[5-bromo-2-(2,4-difluoro-benzyloxy)-phenyl]-5-methyl-pyrrol-1-yl}-6-hydroxy-benzoic acid methyl ester.

| Compound | Ki (human EP1 receptor [1]) [µM] | IC50 (human EP1 receptor [2]) [µM] |
| --- | --- | --- |
| Cc1cc(-c2nc3ccccc3[nH]2)nn1Cc1cc(Cl)cc2cc(C(C)C)oc12 [Example 5, 2-(1-{[5-Chloro-2-(1-methylethyl)-1-benzofuran-7-yl]methyl}-5-methyl-1H-pyrazol-3-yl)-1H-benzimidazole Hydrochloride] | ≤ 0.316 | ≤ 0.1 |
| Cc1cc(C(=O)NN2CCCCC2)nn1Cc1cc(Cl)cc2cc(C(C)C)oc12 [Example 6, 1-{[5-Chloro-2-(1-methylethyl)-1-benzofuran-7-yl]methyl}-5-methyl-N-1-piperidinyl-1H-pyrazole-3-carboxamide] | ≤ 0.316 | ≤ 0.1 |
| Cc1cc(C(=O)NN2CCOCC2)nn1Cc1cc(Cl)cc2cc(C(C)C)oc12 [Example 7, 1-{[5-Chloro-2-(1-methylethyl)-1-benzofuran-7-yl]methyl}-5-methyl-N-4-morpholinyl-1H-pyrazole-3-carboxamide] | ≤ 0.316 | ≤ 0.1 |
| CC(C)c1cc2cc(Cl)cc(Cc3ccc(-c4nc5cc(CO)ccc5[nH]4)o3)c2o1 [Example 9, [2-(5-{[5-Chloro-2-(1-methylethyl)-1-benzofuran-7-yl]methyl}-2-furanyl)-1H-benzimidazol-5-yl]methanol Hydrochloride] | ≤ 0.316 | ≤ 0.1 |
| Cc1cc(C(=O)NN2CCOCC2)nn1Cc1cc(Br)cc2cc(C(C)C)oc12 [Example 18, 1-{[5-Bromo-2-(1-methylethyl)-1-benzofuran-7-yl]methyl}-5-methyl-N-4-morpholinyl-1H-pyrazole-3-carboxamide] | ≤ 0.316 | ≤ 0.1 |
| Cc1cc(C(=O)O)nn1Cc1cc(Br)cc2cc(C(C)C)oc12 [Example 19, 1-{[5-Bromo-2-(1-methylethyl)-1-benzofuran-7-yl]methyl}-5-methyl-1H-pyrazole-3-carboxylic Acid] | ≤ 0.316 | ≤ 0.1 |
| Cc1cc(C(=O)O)nn1Cc1cc(Cl)cc2cc(C3CC3)oc12 [Example 23, Sodium 1-[(5-chloro-2-cyclopropyl-1-benzofuran-7-yl)methyl]-5-methyl-1H-pyrazole-3-carboxylate] |  | ≤ 0.1 |
| CC(C)c1cc2cc(Cl)cc(Cc3cccc(C(=O)O)n3)c2o1 [Example 24] | ≤ 0.316 | ≤ 0.1 |
| Cc1cc(C(=O)O)nn1Cc1cc(C#N)cc2cc(C(C)C)oc12 [Example 25, 1-{[5-Cyano-2-(1-methylethyl)-1-benzofuran-7-yl]methyl}-5-methyl-1H-pyrazole-3-carboxylic Acid] | ≤ 0.316 | ≤ 0.1 |
| Cc1cc(C(=O)O)nn1Cc1cc(Cl)cc2cc(C(C)(C)C)oc12 [Example 27, 1-{[5-Chloro-2-(1,1-dimethylethyl)-1-benzofuran-7-yl]methyl}-5-methyl-1H-pyrazole-3-carboxylic Acid] | ≤ 0.316 | ≤ 0.1 |
| Cc1cc(C(=O)NC2CCOCC2)nn1Cc1cc(Cl)cc2cc(C3CCCCC3)oc12 [Example 29, 1-[(5-Chloro-2-cyclohexyl-1-benzofuran-7-yl)methyl]-5-methyl-N-(tetrahydro-2H-pyran-4-yl)-1H-pyrazole-3-carboxamide] | ≤ 0.316 | ≤ 0.1 |
| CC(C)c1cc2cc(Cl)cc(Cc3ccc(C(N)=O)o3)c2o1 [Example 37, 5-{[5-Chloro-2-(1-methylethyl)-1-benzofuran-7-yl]methyl}-2-furancarboxamide] | ≤ 0.316 | ≤ 0.1 |
| CC(C)c1cc2cc(Cl)cc(Cc3ccc(C(=O)NCC4CCNCC4)o3)c2o1 [Example 48] | 1 to 1.58 | ≤ 0.1 |
| Cc1cc(C(=O)Nc2ccc(CN3CCC(O)CC3)cc2)nn1Cc1cc(Br)cc2cc(C(C)C)oc12 [Example 49, 1-{[5-Bromo-2-(1-methylethyl)-1-benzofuran-7-yl]methyl}-N-{4-[(4-hydroxy-1-piperidinyl)methyl]phenyl}-5-methyl-1H-pyrazole-3-carboxamide Hydrochloride] |  | ≤ 0.1 |
| CNCc1ccc(NC(=O)c2cc(C)n(Cc3cc(Br)cc4cc(C(C)C)oc34)n2)cc1 [Example 50, 1-{[5-Bromo-2-(1-methylethyl)-1-benzofuran-7-yl]methyl}-5-methyl-N-{4-[(methylamino)methyl]phenyl}-1H-pyrazole-3-carboxamidehydrochloride] | ≤ 0.316 | ≤ 0.1 |
| Cc1cc(NC(=O)[C@H]2CC[C@@H](O)CC2)nn1Cc1cc(Cl)cc2cc(C(C)C)oc12 [Example 62, cis-N-(1-{[5-Chloro-2-(1-methylethyl)-1-benzofuran-7-yl]methyl}-5-methyl-1H-pyrazol-3-yl)-4-hydroxycyclohexanecarboxamide] |  | ≤ 0.1 |
| Cc1cc(NC(=O)[C@H]2CC[C@H](O)CC2)nn1Cc1cc(Cl)cc2cc(C(C)C)oc12 [Example 63, trans-N-(1-{[5-chloro-2-(1-methylethyl)-1-benzofuran-7-yl]methyl}-5-methyl-1H-pyrazol-3-yl)-4-hydroxycyclohexanecarboxamide] |  | ≤ 0.1 |
| Cc1cc(NC(=O)c2ccc(CN3CCCC3)cc2)nn1Cc1cc(Cl)cc2cc(C(C)C)oc12 [Example 67] |  | ≤ 0.1 |
